Laboratory results: patent publication US20260144740A1, “COSMETIC ACTIVE INGREDIENT DERIVED FROM A NON-VOLATILE FRACTION OF CANARIUM EXUDATE AND USES THEREOF” (FLORE SCOLA, priority 2022, published 2026)

Experiments:
[1] = test system: interleukin 6 (IL-6); experiment: Anti-inflammatory effect: IL-6 release by keratinocytes stimulated by UV (ELISA, related to protein level); assay type: cell-based, human; conditions: positive control
Procedure: This test consists of evaluating the production of inflammatory mediators by human keratinocytes in response to irritant stress. The method is based on measuring the release rate of interleukin 6 (IL-6) by keratinocytes cultured in the presence of the ingredient and stimulated by UV light.
Five solutions are tested. Each is obtained by dilution in a culture medium and obtaining a final concentration of 1% ethanol. […] The second, third and fourth solutions differ in the concentration of the final residue (respectively 1.4 μg/mL, 3.5 μg/mL and 7.0 μg/mL). The fifth solution is dexamethasone (Dexa) (SIGMA Ref D1756) which is tested at 100 µM as a positive control.
On D0, 48 hours after seeding, the cells are rinsed with phosphate-buffered saline (PBS) and then exposed to UVB through the PBS. Immediately after irradiation, the PBS is replaced by the DMEM (Dulbecco's Modified Eagle Medium) test medium comprising the solution to be tested. The cells are returned to 37° C. and incubated for 24 hours.
On D1 (T 24 h), the incubation media are collected and the level of IL-6 is measured using the ELISA assay kit (IL-6 HIGH SENSITIVITY ELISA KIT, ENZO). At the same time, the corresponding cell layers are rinsed with Hank's Balanced Salt Solution (HBSS) and processed for cellular protein assay. A NaOH solution is added to each sample. After incubation, the cell extracts are collected and frozen at −20° C. to await assay with the BCA Protein Assay kit (PIERCE®).
The crude levels of IL-6 (pg per sample) are deduced by interpolation from the standard curve established with the IL-6 standard in the kit. The average of the IL-6 levels is calculated for each sample.
The protein level (μg per sample) is deduced by interpolation from the standard curve established with a bovine serum albumin standard in order to express the IL-6 level in relation to the average protein level. The average level is calculated for each sample.
The average IL-6 level is related to the average protein level. […]

[2] = test system: PCi-SEB human sebocytes; experiment: Anti-sebum effect: intracellular neutral lipids (Nile Red test) in sebocytes, lipogenesis induced by linoleic acid; assay type: cell-based; conditions: positive control
Procedure: The aim of this test is to study the anti-sebum effect of the ingredient according to the invention using an in vitro cell model. An extract is prepared according to Example 2.
The procedure is as follows. PCi-SEB human sebocytes derived from induced pluripotent stem (iPS) cells are prepared. The amplification and the maturation of PCi-SEB sebocytes is achieved by incubation in SEB medium for amplification for 2 days then in supplemented SEB medium for maturation for 3 days. The sebocytes are incubated for 24 hours in the presence of the ingredient according to the invention. Lipogenesis is induced by the addition of linoleic acid, then the sebocytes are incubated for 48 hours in the presence of the ingredient according to the invention.
In order to verify efficacy, the following biomarkers are measured: namely, intracellular neutral lipids (Nile Red test) and cellular proteins (Pierce BCA test).
The experimental plan is as follows: • 1 batch (Control): untreated cells incubated in SEB medium (n=3) • 1 batch (EtOH control): untreated cells incubated in SEB medium+EtOH (0.125%)] (n=3) • 3 batches (Test element-treated): cells incubated in medium (SEB+EtOH (0.125%)) and treated with 3 concentrations of test element (n=3) • 1 batch [PC]: cells incubated in SEB medium and treated with TOFA (20 μM)
The ingredient according to the invention was tested at 3 concentrations: C1=5 μg/mL, C2=15 μg/mL and C3=30 μg/mL
The level of neutral lipids was measured in control sebocyte cultures then treated by staining the cells with Nile Red. The values (fluorescence intensity) were reported at the average cellular protein level.
The [Nile-Red] values are expressed in arbitrary units (fluorescence intensity (urf) per mg of cellular protein).

SMILES | Induced IL-6 ([1]; 100 μM, 24 h after UVB) | Induced IL-6 (%), with respect to IL-6 induced in the ethanol control ([1]; 100 μM, 24 h after UVB) | inhibition of UV-induced IL-6 release ([1]; same experimental conditions) | Neutral lipids - Nile Red, Mean, per mg of cellular protein ([2]; 20 μM) | Nile Red Test, Mean (fluorescence intensity) ([2]; 20 μM) | Lipogenic effect (%) ([2]; 20 μM, vs. EtOH control) | activity at 20 µM ([2]; Homo sapiens, read-out: Neutral lipids (% of controlEtOH))
C[C@@H]1C[C@H]2[C@@H]3CCC4=CC(=O)C=C[C@]4(C)[C@@]3(F)[C@@H](O)C[C@]2(C)[C@@]1(O)C(=O)CO [Dexa, dexamethasone] | 105.10 pg/mg prot. | 8% | 92% |  |  |  | 
CCCCCCCCCCCCCCOc1ccc(C(=O)O)o1 [TOFA, 5-(tetradecyloxy)-2-furoic acid] |  |  |  | 7.01 URF/mg prot. | 1679 | −75% | 25%
